Source: patent US10434098B2, “Deuterated dehydrophenylahistin compounds and preparation method thereof and use thereof in preparation of anti-tumor drugs” (MARINE BIOMEDICAL RESEARCH INSTITUTE OF QINGDAO CO., LTD., priority 2015, dated 2019)

Columns and labels:
Assay type in all cases: cell-based
[1] = system: human skin cancer cell strain A431; assay: MTT inhibition ratio on tumor cells A431; conditions: for Inhibition ratio (%): 72 h, MTT; for activity of inhibiting tumors compared with positive control: A431, summary of Table 2
Description: (§1) The inhibition ratio of the selected compounds on tumor cells A431 and Jurkat is measured via the MTT analytical method.
(§2) 1) Cell strains: human skin cancer cell strain A431 and human acute T cell leukemia cell Jurkat. The ells grow in an RPMI-1640 culture medium and high glucose DMEM (Gibco BRL, Rockville, Md., USA)+10% fetal calf serum (containing 2 mM L-glutamine, penicillin and streptomycin), and putting them into an incubator at 37° C. (5% CO2-95% air) for growing, carrying out digestive passage with 0.25% trypsin, and changing the solution every 1 to 2 days.
(§3) 2) The dissolution and dilution of compounds: according to the molecular weight and mass of the compounds, preparing into a 10 mM of mother solution respectively using DMSO (SIGMA), and diluting to the required concentration of 100 μM (DMSO content≤3%o) with the RPMI-1640 culture medium. Storing the diluted drugs at temperature of −20° C.
(§4) 1) Cell inoculation: Taking cells in the logarithmic phase, after digestion with pancreatin, the cells disperse into single cells, counting, adjusting cell suspension to […], inoculating in the 96-well plates with 180 μL in each well, and making the amount of the inoculated cells is 4.0×10^3 cells/well. After cell attachment, adding the fresh culture media containing compounds with different concentrations respectively, making the concentrations of the compounds reach 12.5 nM and 6.25 nM, setting 3 duplicate wells for each concentration, operating in absence of light, and adjusting the content of DMSO in each concentration to be consistent.
(§5) 2) After drug incubation for 72 h, adding 20 μL of MTT (3-[4,5-dimethylthiazol-2-yl]-2,5-diphenyltetrazolium bromide, Sigma; 5 mg/mL) into each well, incubating in a incubator for 4 h, removing supernate, adding 150 μL of DMSO into each well for dissolving, and measuring absorbancy at 570 nm using the microplate reader. According to the formula: Inhibition ratio=[(A570 control well−A570 administration well)/A570 control well]×100%, to calculate the inhibition ratio of each concentration, and the result is shown in the table 2.

[2] = system: intracellular microtubulin of human epidermal carcinoma A431; assay: High content imaging analysis of microtubulin (immunofluorescent staining, Alexa 488); conditions: 12.5 nM, 24 h; for Alexa488 stained fluorescence intensity of microtubulin in the cells: versus blank and DMSO control, FIG. 3/4; for microtubulin distribution and cellular morphology / Alexa488 fluorescence intensity compared with the positive control Plinabulin: A431 cells; for microtubulin distribution and cellular morphology: FIG. 3; for Alexa488 fluorescence intensity compared with the positive control Plinabulin: FIG. 4
Description: Plinabulin (dehydro-phenylahistin) is used as positive control, and concentration is set as 12.5 nM. According to the data in earlier-stage, 3 kinds of samples are selected, i.e., compounds 1, 2 and 3. The concentrations of all samples are set as 12.5 nM. According to the experiment method for specific immunofluorescent staining (Alexa 488), the effect of the compounds 1, 2 and 3 on the expression of intracellular microtubulin of human epidermal carcinoma A431 is detected via the high content imaging analysis system. 1) Taking cells in the logarithmic phase, after digestion with pancreatin, the cells disperse into single cells counting, inoculating in the 96-well plates at 1.2×10^4 cells/well, putting at temperature of 37° C., culturing in a 5% CO2 incubator for 24 h until cell attachment. 2) After cell attachment, for experiment group, adding the fresh culture medium containing compounds with different concentrations respectively into each well, making the concentrations of the compounds reach 12.5 nM, and setting 3 duplicate wells for each concentration. In the control group, adding a solvent DMSO with equimultiple diluting, selecting Plinabulin (dehydro-phenylahistin) as a positive drug, setting 3 duplicate wells in each group, and culturing in an incubator at temperature of 37° C. under 5% CO2 saturated humidity for 24 h. 3) Absorbing the culture medium after 24 h, and washing with PBS for 3 times; fixing with 4% paraformaldehyde for 30 min, absorbing paraformaldehyde, and washing with PBS for 3 times; sealing with 0.3% Triton X-100 and 5% BSA for 30 min, absorbing, and washing with PBS for 3 times; adding Tubulin antibody (mouse antibody, diluting in a ratio of 1:200), and staying overnight at temperature of 4° C.; absorbing, and washing with PBS for 3 times; adding DyLight 488-goat anti mouse IgG (diluting in a ratio of 1:1000), and placing at room temperature for 90 min 4) Photographing analysis of high content imaging analysis system

[3] = system: human acute T cell leukemia cell Jurkat; assay: MTT inhibition ratio on tumor cells Jurkat; conditions: for Inhibition ratio (%): 72 h, MTT; for activity of inhibiting tumors compared with positive control: summary of Table 2
Description: as §1, §2, §3, §4, §5

| Compound | Inhibition ratio (%) ([1]; A431, concentration 12.5 nM) | activity of inhibiting tumors compared with positive control [1] | Alexa488 stained fluorescence intensity of microtubulin in the cells [2] | microtubulin distribution and cellular morphology [2] | Alexa488 fluorescence intensity compared with the positive control Plinabulin [2] | Inhibition ratio (%) ([3]; concentration 12.5 nM) | activity of inhibiting tumors compared with positive control [3] | Inhibition ratio (%) ([1]; A431, concentration 6.25 nM) | Inhibition ratio (%) ([3]; concentration 6.25 nM) |
| --- | --- | --- | --- | --- | --- | --- | --- | --- | --- |
| [2H]/C(c1nc[nH]c1C(C)(C)C)=c1/[nH]c(=O)/c(=C/c2ccccc2)[nH]c1=O [Compound 3, (3Z,6Z)-3-(phenylmethylene)-6-((5-(tert-butyl)-1H-imidazol-4-yl)methylene-d)piperazine-2,5-dione] | 93.79 | close to that of the positive control Plinabulin | obviously enhanced | aggregation in microtubulin and a significant change in cellular morphology | higher than the positive control in the effect | 86.09 | close to that of the positive control Plinabulin | – | – |
| [2H]/C(c1ccccc1)=c1/[nH]c(=O)/c(=C(\[2H])c2nc[nH]c2C(C)(C)C)[nH]c1=O [Compound 2, (3Z,6Z)-3-(phenylmethylene-d)-6-((5-(tert-butyl)-1H-imidazol-4-yl)methylene-d)piperazine-2,5-dione] | 94.11 | close to that of the positive control Plinabulin | obviously enhanced | aggregation in microtubulin and a significant change in cellular morphology | higher than the positive control in the effect | 79.65 | close to that of the positive control Plinabulin | – | – |
| [2H]/C(c1ccccc1)=c1/[nH]c(=O)/c(=C/c2nc[nH]c2C(C)(C)C)[nH]c1=O [Compound 4, (3Z,6Z)-3-(phenylmethylene-d)-6-((5-(tert-butyl)-1H-imidazol-4-yl)methylene)piperazine-2,5-dione] | 91.85 | close to that of the positive control Plinabulin | – | – | – | 82.33 | close to that of the positive control Plinabulin | 53.90 | 16.04 |
| [2H]/C(c1nc[nH]c1C(C)(C)C)=c1/[nH]c(=O)/c(=C(\[2H])c2c([2H])c([2H])c([2H])c([2H])c2[2H])[nH]c1=O [Compound 7, (3Z,6Z)-3-(phenyl-2,3,4,5,6-d5)-methylene-d-6-((5-(tert-butyl)-1H-imidazol-4-yl)methylene-d)piperazine-2,5-dione] | 87.73 | close to that of the positive control Plinabulin | – | – | – | 64.49 | close to that of the positive control Plinabulin | – | – |
| CC(C)(C)c1[nH]cnc1/C=c1\[nH]c(=O)/c(=C/c2ccccc2)[nH]c1=O [Plinabulin, reference compound] | 91.81 | – | obviously enhanced | aggregation in microtubulin and a significant change in cellular morphology | – | 79.69 | – | 63.25 | 13.75 |
| [2H]c1c([2H])c([2H])c(/C=c2\[nH]c(=O)/c(=C/c3nc[nH]c3C(C)(C)C)[nH]c2=O)c([2H])c1[2H] [Compound 5, (3Z,6Z)-3-(phenyl-2,3,4,5,6-d5)-methylene-6-((5-(tert-butyl)-1H-imidazol-4-yl)methylene)piperazine-2,5-dione] | 66.00 | close to that of the positive control Plinabulin | – | – | – | 16.86 | close to that of the positive control Plinabulin | – | – |
| [2H]/C(c1nc[nH]c1C(C)(C)C)=c1/[nH]c(=O)/c(=C/c2c([2H])c([2H])c([2H])c([2H])c2[2H])[nH]c1=O [Compound 1, (3Z,6Z)-3-(phenyl-2,3,4,5,6-d5)-methylene-6-((5-(tert-butyl)-1H-imidazol-4-yl)methylene-d)piperazine-2,5-dione] | 95.04 | close to that of the positive control Plinabulin | obviously enhanced | aggregation in microtubulin and a significant change in cellular morphology | higher than the positive control in the effect | 86.46 | close to that of the positive control Plinabulin | – | – |
| [2H]/C(c1c([2H])c([2H])c([2H])c([2H])c1[2H])=c1/[nH]c(=O)/c(=C/c2nc[nH]c2C(C)(C)C)[nH]c1=O [Compound 6, (3Z,6Z)-3-(phenyl-2,3,4,5,6-d5)-methylene-d-6-((5-(tert-butyl)-1H-imidazol-4-yl)methylene)piperazine-2,5-dione] | 79.28 | close to that of the positive control Plinabulin | – | – | – | 73.40 | close to that of the positive control Plinabulin | 16.17 | 7.70 |
